Results taken from ChEMBL document CHEMBL5303573, “Mapping human microbiome drug metabolism by gut bacteria and their genes” (Nature, 2019).

Legend:
[1] = The drug is tested on Alistipes indistinctus strain: DSM22520 for biotransformation. The drug concentrations were measured before and after a 12-h incubation by liquid-chromatography-coupled mass spectrometry (LC–MS); conditions: 2 µM
[2] = The drug is tested on Anaerotruncus colihominis strain: DSM17241 for biotransformation. The drug concentrations were measured before and after a 12-h incubation by liquid-chromatography-coupled mass spectrometry (LC–MS); conditions: 2 µM
[3] = The drug is tested on Bifidobacterium breve strain: DSM20213 for biotransformation. The drug concentrations were measured before and after a 12-h incubation by liquid-chromatography-coupled mass spectrometry (LC–MS); conditions: 2 µM
[4] = The drug is tested on Bacteroides vulgatus strain: ATCC8482 for biotransformation. The drug concentrations were measured before and after a 12-h incubation by liquid-chromatography-coupled mass spectrometry (LC–MS); conditions: phocaeicola vulgatus, 2 µM
[5] = The drug is tested on Eubacterium hallii strain: DSM3353 for biotransformation. The drug concentrations were measured before and after a 12-h incubation by liquid-chromatography-coupled mass spectrometry (LC–MS); conditions: anaerobutyricum hallii, 2 µM
[6] = The drug is tested on Ruminococcus gnavus strain: ATCC29149 for biotransformation. The drug concentrations were measured before and after a 12-h incubation by liquid-chromatography-coupled mass spectrometry (LC–MS); conditions: mediterraneibacter gnavus, 2 µM
[7] = The drug is tested on Bacteroides cellulosilyticus strain: DSM14838 for biotransformation. The drug concentrations were measured before and after a 12-h incubation by liquid-chromatography-coupled mass spectrometry (LC–MS); conditions: 2 µM
[8] = The drug is tested on Eubacterium ventriosum strain: ATCC27560 for biotransformation. The drug concentrations were measured before and after a 12-h incubation by liquid-chromatography-coupled mass spectrometry (LC–MS); type: ADME; parameters: dose 2 uM, timepoint 0 vs 12 hours; conditions: 2 µM
[9] = bacteroides thetaiotaomicron, 12 h, 2 µM
Description: The drug is tested on Bacteroides thetaiotaomicron strain: 3731 for biotransformation. The drug concentrations were measured before and after a 12-h incubation by liquid-chromatography-coupled mass spectrometry (LC–MS)

[10] = bacteroides fragilis, 12 h, 2 µM
Description: The drug is tested on Bacteroides fragilis strain: 3397 (T10) for biotransformation. The drug concentrations were measured before and after a 12-h incubation by liquid-chromatography-coupled mass spectrometry (LC–MS)

[11] = parabacteroides distasonis, 12 h, 2 µM
Description: The drug is tested on Parabacteroides distasonis strain: ATCC8503 for biotransformation. The drug concentrations were measured before and after a 12-h incubation by liquid-chromatography-coupled mass spectrometry (LC–MS)

[12] = bacteroides stercoris, 12 h, 2 µM
Description: The drug is tested on Bacteroides stercoris strain: ATCC43183 for biotransformation. The drug concentrations were measured before and after a 12-h incubation by liquid-chromatography-coupled mass spectrometry (LC–MS)

[13] = parabacteroides johnsonii, 12 h, 2 µM
Description: The drug is tested on Parabacteroides johnsonii strain: DSM18315 for biotransformation. The drug concentrations were measured before and after a 12-h incubation by liquid-chromatography-coupled mass spectrometry (LC–MS)

[14] = The drug is tested on Bacteroides coprophilus strain: DSM18228 for biotransformation. The drug concentrations were measured before and after a 12-h incubation by liquid-chromatography-coupled mass spectrometry (LC–MS); conditions: 2 µM
[15] = bacteroides fragilis, 12 h, 2 µM; remark: listed apart in the source
Description: The drug is tested on Bacteroides fragilis strain: DS-208 for biotransformation. The drug concentrations were measured before and after a 12-h incubation by liquid-chromatography-coupled mass spectrometry (LC–MS)

[16] = The drug is tested on Bacteroides finegoldii strain: DSM17565 for biotransformation. The drug concentrations were measured before and after a 12-h incubation by liquid-chromatography-coupled mass spectrometry (LC–MS); conditions: 2 µM
[17] = The drug is tested on Anaerococcus hydrogenalis strain: DSM7454 for biotransformation. The drug concentrations were measured before and after a 12-h incubation by liquid-chromatography-coupled mass spectrometry (LC–MS); conditions: 2 µM
[18] = The drug is tested on Clostridium scindens strain: ATCC35704 for biotransformation. The drug concentrations were measured before and after a 12-h incubation by liquid-chromatography-coupled mass spectrometry (LC–MS); conditions: 2 µM
[19] = The drug is tested on Ruminococcus lactaris strain: ATCC29176 for biotransformation. The drug concentrations were measured before and after a 12-h incubation by liquid-chromatography-coupled mass spectrometry (LC–MS); conditions: 2 µM

| Bacterial Biotransformation [1] | Bacterial Biotransformation [2] | Bacterial Biotransformation [3] | Bacterial Biotransformation [4] | Bacterial Biotransformation [5] | Bacterial Biotransformation [6] | Bacterial Biotransformation [7] | Bacterial Biotransformation [9] | Bacterial Biotransformation [10] | Bacterial Biotransformation [11] | Bacterial Biotransformation [12] | Bacterial Biotransformation [13] | Bacterial Biotransformation [14] | Bacterial Biotransformation [15] | Bacterial Biotransformation [16] | Bacterial Biotransformation [17] | Bacterial Biotransformation [18] | SMILES | Bacterial Biotransformation [8] | Bacterial Biotransformation [19] |
| --- | --- | --- | --- | --- | --- | --- | --- | --- | --- | --- | --- | --- | --- | --- | --- | --- | --- | --- | --- |
| Compound NOT metabolized | Compound NOT metabolized | Compound NOT metabolized | Compound NOT metabolized | Compound NOT metabolized | Compound NOT metabolized | Compound NOT metabolized | Compound NOT metabolized | Compound NOT metabolized | Compound NOT metabolized | Compound NOT metabolized | Compound NOT metabolized | Compound NOT metabolized | Compound NOT metabolized | Compound NOT metabolized |  |  | COc1ccccc1OCC(O)COC(N)=O (stereo not given) [METHOCARBAMOL] | Compound NOT metabolized |  |
| Compound metabolized | Compound metabolized | Compound NOT metabolized | Compound metabolized | Compound metabolized | Compound metabolized | Compound metabolized | Compound metabolized | Compound metabolized | Compound NOT metabolized | Compound metabolized | Compound metabolized | Compound metabolized | Compound metabolized | Compound metabolized | Compound NOT metabolized | Compound NOT metabolized | C#C[C@]1(OC(C)=O)CC[C@H]2[C@@H]3CCC4=CC(=O)CC[C@@H]4[C@H]3CC[C@@]21C [NORETHINDRONE ACETATE] | Compound metabolized |  |
| Compound metabolized | Compound NOT metabolized | Compound NOT metabolized | Compound metabolized | Compound metabolized | Compound NOT metabolized | Compound metabolized | Compound metabolized |  | Compound metabolized |  | Compound metabolized | Compound metabolized | Compound NOT metabolized | Compound metabolized | Compound NOT metabolized | Compound NOT metabolized | COc1ccc([C@@H]2Sc3ccccc3N(CCN(C)C)C(=O)[C@@H]2OC(C)=O)cc1 [DILTIAZEM] | Compound NOT metabolized | Compound metabolized |
| Compound NOT metabolized | Compound NOT metabolized | Compound NOT metabolized | Compound NOT metabolized | Compound NOT metabolized | Compound NOT metabolized | Compound NOT metabolized | Compound NOT metabolized | Compound NOT metabolized |  | Compound NOT metabolized | Compound NOT metabolized | Compound NOT metabolized | Compound NOT metabolized | Compound NOT metabolized | Compound NOT metabolized | Compound NOT metabolized | CC(C)(C(=O)O)c1ccc(C(O)CCCN2CCC(C(O)(c3ccccc3)c3ccccc3)CC2)cc1 (stereo not given) [FEXOFENADINE] |  |  |
| Compound NOT metabolized | Compound NOT metabolized | Compound NOT metabolized | Compound NOT metabolized | Compound NOT metabolized | Compound NOT metabolized | Compound NOT metabolized | Compound NOT metabolized | Compound NOT metabolized | Compound NOT metabolized |  | Compound NOT metabolized | Compound NOT metabolized | Compound NOT metabolized | Compound NOT metabolized | Compound NOT metabolized | Compound NOT metabolized | Cc1ccccc1C(OCCN(C)C)c1ccccc1.O=C(O)CC(O)(CC(=O)O)C(=O)O (stereo not given) [ORPHENADRINE CITRATE] |  | Compound NOT metabolized |

| SMILES | Bacterial Biotransformation [1] | Bacterial Biotransformation [2] | Bacterial Biotransformation [3] | Bacterial Biotransformation [4] | Bacterial Biotransformation [5] | Bacterial Biotransformation [6] | Bacterial Biotransformation [7] | Bacterial Biotransformation [9] | Bacterial Biotransformation [10] | Bacterial Biotransformation [11] | Bacterial Biotransformation [12] | Bacterial Biotransformation [13] | Bacterial Biotransformation [14] | Bacterial Biotransformation [15] | Bacterial Biotransformation [16] | Bacterial Biotransformation [17] | Bacterial Biotransformation [18] | Bacterial Biotransformation [8] | Bacterial Biotransformation [19] |
| --- | --- | --- | --- | --- | --- | --- | --- | --- | --- | --- | --- | --- | --- | --- | --- | --- | --- | --- | --- |
| COCCCC/C(=N\OCCN)c1ccc(C(F)(F)F)cc1.O=C(O)/C=C\C(=O)O [FLUVOXAMINE MALEATE] | Compound NOT metabolized | Compound NOT metabolized | Compound NOT metabolized | Compound metabolized | Compound NOT metabolized | Compound NOT metabolized | Compound NOT metabolized | Compound metabolized | Compound metabolized |  |  | Compound NOT metabolized | Compound metabolized |  | Compound NOT metabolized | Compound NOT metabolized | Compound NOT metabolized | Compound NOT metabolized | Compound NOT metabolized |
| OCCN1CCN(CCCN2c3ccccc3Sc3ccc(C(F)(F)F)cc32)CC1 [FLUPHENAZINE] | Compound NOT metabolized |  | Compound NOT metabolized | Compound metabolized | Compound metabolized | Compound NOT metabolized | Compound metabolized | Compound metabolized | Compound metabolized | Compound metabolized | Compound metabolized | Compound metabolized | Compound NOT metabolized | Compound metabolized | Compound metabolized | Compound NOT metabolized | Compound NOT metabolized | Compound metabolized | Compound NOT metabolized |
| CN(C)C(=O)Oc1cccc([N+](C)(C)C)c1.[Br-] [NEOSTIGMINE BROMIDE] | Compound NOT metabolized | Compound NOT metabolized | Compound NOT metabolized |  |  | Compound NOT metabolized | Compound NOT metabolized | Compound metabolized | Compound metabolized | Compound NOT metabolized | Compound NOT metabolized | Compound NOT metabolized | Compound metabolized | Compound metabolized | Compound NOT metabolized | Compound NOT metabolized | Compound NOT metabolized | Compound NOT metabolized | Compound NOT metabolized |
